How the values were obtained:
[1] = tested on: striatal tyrosine hydroxylase (dopaminergic neurons); experiment: Striatal tyrosine hydroxylase activity in high-dose MPTP-treated mice; assay type: in vivo; details: MPTP 40 mg/kg s.c., 7 days
Method: In a separate experiment, the activities of Compound A were assessed in a high dose MPTP-mouse model. A single 40 mg/kg injection of MPTP produced a 95% depletion in striatal tyrosine hydroxylase enzyme activity 7 days post-injection. Administration of Compound A at daily doses of between 0.03 and 3.0 mg/kg reduced the magnitude of the lesion, in a dose dependent manner.
Mice were treated with MPTP (40 mg/kg; s.c.) 4-6 hrs after the first Compound A injection. Compound A was then injected every day until the end of the experiment which was 7 days in duration. Striata were assessed for tyrosine hydroxylase enzyme activity. Asterisk indicates statistically significant difference (p<0.05) from MPTP-Vehicle treated animals.

[2] = tested on: nucleus basalis magnocellularis; experiment: T-maze rewarded alternation task after bilateral nbm lesion; assay type: in vivo, Sprague-Dawley rats; details: 0.1 mg/kg s.c. every other day until 12 days post-lesion; tested 10-12 weeks later
Method: Adult male Sprague-Dawley rats were first trained to alternate responses in a standard rewarded-alternation T-maze task (Hepler et al., J. Neurosci., 5:866-873, 1985). The animals then received bilateral lesions of the nucleus basalis magnocellularis, to impair performance in T-maze tasks (e.g., Salamone et al., Behav. Brain Res., 13:63-70, 1984). Beginning 18 hours after the lesion, the animals received Compound A via subcutaneous injection (0.1 mg/kg) every other day until 12 days post-lesion. Twenty-four hours following the last injection all animals were placed in the T-maze once a day, until their alternation performance reached pre-operative levels, which took anywhere from 3 to 10 days. After reaching criterion, the animals were not further tested for 8-10 weeks. At that point the animals were again placed in the T-maze, once a day until they reached pre-operative performance.

[3] = biological target: monoamine oxidase-B (Homo sapiens, UniProt P27338); experiment: Monoamine oxidase-B inhibition in vitro; details: FIG. 2
monoamine oxidase-B, sequence (P27338 whole entry): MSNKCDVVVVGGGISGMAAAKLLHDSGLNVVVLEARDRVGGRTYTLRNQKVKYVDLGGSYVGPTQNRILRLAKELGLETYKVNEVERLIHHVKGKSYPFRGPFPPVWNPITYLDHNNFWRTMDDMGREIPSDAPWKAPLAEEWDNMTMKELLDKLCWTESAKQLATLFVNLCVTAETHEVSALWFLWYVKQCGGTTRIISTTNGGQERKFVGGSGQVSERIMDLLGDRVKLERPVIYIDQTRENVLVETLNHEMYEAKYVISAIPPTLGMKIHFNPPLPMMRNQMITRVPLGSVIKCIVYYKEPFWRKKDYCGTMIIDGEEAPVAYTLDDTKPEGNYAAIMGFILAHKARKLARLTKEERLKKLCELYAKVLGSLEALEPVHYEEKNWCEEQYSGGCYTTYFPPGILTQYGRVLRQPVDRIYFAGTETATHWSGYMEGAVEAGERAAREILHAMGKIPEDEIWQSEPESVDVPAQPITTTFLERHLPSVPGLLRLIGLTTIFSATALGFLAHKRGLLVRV

[4] = tested on: glutamatergic neurons in layer 2 of the entorhinal cortex; experiment: NMDA entorhinal cortex lesion model; assay type: in vivo, rats; details: 1 mg/kg s.c. daily, p<0.05
Excerpt: Glutamate-containing neurons in layer 2 of the entorhinal cortex project to the molecular layer of the dentate gyrus, where they form synapses on the dendrites of the dentate gyrus granule cells. A lesion can be created in layer 2 of entorhinal cortex by stereotaxic injection of the excitotoxin N-methyl-D-asparate (NMDA). Under sodium pentobarbitol anesthesia, rats received an injection of NMDA (15 nmols/site) at each of 2 sites in the entorhinal cortex. Two weeks later, the rats were sacrificed and perfused with a 50 mM sodium sulfide solution. The brains were removed, sectioned in the horizontal plane at a thickness of 40 μm, and stained with either Cresyl violet or Timm'stain. The survival of neurons in layer 2 of entorhinal cortex was assessed in Cresyl violet stained sections, while the integrity of their axon terminals in the molecular layer of the dentate gyrus was measured in alternate sections stained with Timm's stain.
Injection of NMDA destroyed 62±11% (s.e.m.) of entorhinal layer 2 and decreased the area of the dentate gyrus middle molecular layer by 19±6% (s.e.m.). […] Thus, Compound A protected neurons in the entorhinal cortex from an excitotoxic lesion and maintained the integrity of their axon terminals in the dentate gyrus.

[5] = tested on: uptake of catecholamines into nerve endings; experiment: Uptake of catecholamines into nerve endings; assay type: biochemical
[6] = tested on: nbm neurons; experiment: Ibotenic acid lesion: Fluoro-Gold-labeled nbm neurons; assay type: in vivo, Sprague-Dawley rats; details: 0.03 mg/kg s.c. every other day until 18 days post-lesion
Excerpt: To test directly the ability of Compound A to prevent excitotoxic neuron death, nbm neurons in adult male Sprague-Dawley rats were first labeled with a long-lasting marker. This was done by injecting Fluoro-Gold (FG), a neuronal tracer that is taken up by nerve terminals and transported back to the cell body (Book et al., J. Neuropath. Exp. Neurology, 53:95-102, 1994), into target regions of nbm neurons in the frontal and parietal cortex. 7-10 days later the animals received lesion of the nbm unilaterally, using 5 μg of ibotenic acid. Beginning 18 hours after this lesion, the animals received Compound A (0.03 mg/kg) via subcutaneous injection, every other day until 18 days post-lesion. Tissue sections were collected throughout the entire rostral-caudal extent of the nbm on both sides of the brain, and numbers of nbm neurons with the FG label were counted. The counts were corrected for size differences using standard procedures, and the results expressed as the percent of labeled neurons in the nbm on the lesioned side of each animal relative to the number of labeled neurons in the nbm on the opposite unlesioned side of the brain.

[7] = tested on: LPS-induced death; experiment: Prevention of LPS-induced death in mice; assay type: in vivo; details: 30 mg/kg ip 2 h before LPS (2 mg/mouse)
Method: Forty mice were divided into three groups, two groups consisting of ten mice and one group of twenty mice. Administrations of vehicles, LPS, and Compound A were intraperitoneal. Group 1 (n=10) mice received vehicle (phosphate buffered saline for LPS, 200 μl/mouse) at time zero and vehicle for Compound A (200 μl/mouse) 2 hours later. Group 2 (n=10) mice received the vehicle for Compound A at zero time (200 μl/mouse) and LPS (2 mg in 200 μl/mouse) for two hours later. Group 3 (n=20) received Compound A (30 mg/kg in 200 μl of vehicle) at time zero and LPS (2 mg in 200 μl/mouse) two hours later.

[8] = biological target: monoamine oxidase-A (Homo sapiens, UniProt P21397); experiment: Monoamine oxidase-A inhibition in vitro; assay type: biochemical; details: FIG. 1
monoamine oxidase-A, sequence (P21397 whole entry): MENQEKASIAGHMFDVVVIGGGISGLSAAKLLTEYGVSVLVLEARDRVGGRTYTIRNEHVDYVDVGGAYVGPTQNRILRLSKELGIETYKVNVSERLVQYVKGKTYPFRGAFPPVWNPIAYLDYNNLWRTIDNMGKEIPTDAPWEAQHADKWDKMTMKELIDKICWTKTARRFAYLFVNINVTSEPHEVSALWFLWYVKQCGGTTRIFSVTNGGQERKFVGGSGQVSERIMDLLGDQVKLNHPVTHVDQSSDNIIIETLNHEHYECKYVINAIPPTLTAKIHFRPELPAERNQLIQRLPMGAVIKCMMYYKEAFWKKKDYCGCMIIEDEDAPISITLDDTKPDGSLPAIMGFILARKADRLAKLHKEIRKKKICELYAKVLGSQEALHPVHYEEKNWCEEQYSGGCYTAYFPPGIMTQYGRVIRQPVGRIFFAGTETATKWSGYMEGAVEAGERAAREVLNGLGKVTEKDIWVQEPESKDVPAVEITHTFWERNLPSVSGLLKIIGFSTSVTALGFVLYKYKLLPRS

[9] = tested on: cholinergic neurons, striatal neurons, and sensory neurons; details: cited from earlier work

In the case of CCSCc1ccc2c(c1)c1c3c(c4c5cc(CSCC)ccc5n5c4c1n2C1CC(O)(C(=O)OC)C5(C)O1)CNC3=O (stereo not drawn) [Compound A], the “% Unlesioned Control” value ([1]; 0.03 mg/kg daily) was 8 ± 2.5%, the “Striatal TH Activity (± SEM)” value ([1]; 0.03 mg/kg daily) was 1.8 ± 0.6 and the “% Unlesioned Control” value ([1]; 0.3 mg/kg daily) was 12 ± 2.5%. The “Striatal TH Activity (± SEM)” value ([1]; 0.3 mg/kg daily) was 2.7 ± 0.6, the “% Unlesioned Control” value ([1]; 3.0 mg/kg daily) was 23 ± 8.0% and the “Striatal TH Activity (± SEM)” value ([1]; 3.0 mg/kg daily) was 5.3 ± 1.8. The “total number of errors in T-maze task compared to normals” value [2] was “not different from normals”, the “monoamine oxidase-B inhibition” value [3] was “not a monoamine oxidase-B inhibitor” and the “decrease in area of dentate gyrus middle molecular layer” value ([4]; NMDA alone 19±6% decrease) was “prevented the decrease in area of the middle molecular layer”. The “loss of entorhinal layer 2 neurons” value ([4]; s.e.m., NMDA alone 62±11%) was 22±10%, the “block of uptake of catecholamines into nerve endings” value [5] was “found not to inhibit monoamine oxidase A or B in vitro (FIGS. 1 and 2) or block uptake of catecholamines into nerve endings” and the “effect on FG-labeled neurons at mid-lesion and caudal to the lesion” value [6] was “declining effect”. For the same compound, the “Fluoro-Gold-labeled neurons in rostral portion of lesioned nbm vs vehicle only” value ([6]; over 400 μm from midpoint of lesion, P<0.05 (FIG. 3)) was “significantly more FG-labeled neurons”, the “mortality one week after LPS” value [7] was 80% and the “mortality at 20 hours after LPS” value ([7]; LPS alone 90% within 20 hours) was 25%. The “mortality at 42 hours after LPS” value ([7]; LPS alone 100% by 42 hours) was 75%, the “monoamine oxidase-A inhibition” value [8] was “not a monoamine oxidase-A inhibitor” and the “function of cholinergic neurons, striatal neurons, and sensory neurons” value [9] was “enhance the function of cholinergic neurons, striatal neurons, and sensory neurons”.
